In brackets after ≈: the same amount, converted by molar mass.
Experiment: Cytotoxicity against human HeLaS3 cells
Format: functional, cell-based
Conditions: HeLa S3

| Compound | IC50 [µg/mL] |
| --- | --- |
| CCC[C@H](C/C(C)=C/[C@H]1OC(=O)[C@@H](C)[C@@H](O)[C@H](C)CC[C@H](OC(C)=O)C[C@@H](OC(C)=O)C[C@@H](OC(C)=O)CC/C(C)=C/CCC[C@@H](O)C[C@H](O)[C@@H]1C)OC(C)=O [DOLABELIDE C] | 1.9 (≈ 2.38 µM) |
| CCC[C@H](C/C(C)=C/[C@H]1OC(=O)[C@@H](C)[C@@H](O)[C@H](C)CC[C@H](O)C[C@@H](OC(C)=O)C[C@@H](O)CC/C(C)=C/CCC[C@@H](O)C[C@H](O)[C@@H]1C)OC(C)=O [DOLABELIDE D] | 1.5 (≈ 2.1 µM) |

From ChEMBL document CHEMBL1145711, “Dolabelides C and D, Cytotoxic Macrolides Isolated from the Sea Hare Dolabella auricularia” (J Nat Prod, 1997)
